Measurements as given in ChEMBL document CHEMBL5550196, “Design, synthesis, and anticancer assessment of structural analogues of (E)-1-((3,4,5-trimethoxybenzylidene)amino)-4-(3,4,5-trimethoxyphenyl)imidazo[1,2-a]quinoxaline-2-carbonitrile (6b), an imidazo[1,2-a]quinoxaline-based non-covalent EGFR inhibitor” (RSC Med Chem, 2024).
The source made the active and inactive calls. The calls are words filed in the database; no cut-off is given here.

target: T1, Epidermal growth factor receptor (Homo sapiens, UniProt P00533); test: Inhibition of EGFR (unknown origin) mediated phosphorylation incubated for 2 hrs in presence of ATP by Z-LYTE assay; details: not given
T1 sequence (P00533 whole entry): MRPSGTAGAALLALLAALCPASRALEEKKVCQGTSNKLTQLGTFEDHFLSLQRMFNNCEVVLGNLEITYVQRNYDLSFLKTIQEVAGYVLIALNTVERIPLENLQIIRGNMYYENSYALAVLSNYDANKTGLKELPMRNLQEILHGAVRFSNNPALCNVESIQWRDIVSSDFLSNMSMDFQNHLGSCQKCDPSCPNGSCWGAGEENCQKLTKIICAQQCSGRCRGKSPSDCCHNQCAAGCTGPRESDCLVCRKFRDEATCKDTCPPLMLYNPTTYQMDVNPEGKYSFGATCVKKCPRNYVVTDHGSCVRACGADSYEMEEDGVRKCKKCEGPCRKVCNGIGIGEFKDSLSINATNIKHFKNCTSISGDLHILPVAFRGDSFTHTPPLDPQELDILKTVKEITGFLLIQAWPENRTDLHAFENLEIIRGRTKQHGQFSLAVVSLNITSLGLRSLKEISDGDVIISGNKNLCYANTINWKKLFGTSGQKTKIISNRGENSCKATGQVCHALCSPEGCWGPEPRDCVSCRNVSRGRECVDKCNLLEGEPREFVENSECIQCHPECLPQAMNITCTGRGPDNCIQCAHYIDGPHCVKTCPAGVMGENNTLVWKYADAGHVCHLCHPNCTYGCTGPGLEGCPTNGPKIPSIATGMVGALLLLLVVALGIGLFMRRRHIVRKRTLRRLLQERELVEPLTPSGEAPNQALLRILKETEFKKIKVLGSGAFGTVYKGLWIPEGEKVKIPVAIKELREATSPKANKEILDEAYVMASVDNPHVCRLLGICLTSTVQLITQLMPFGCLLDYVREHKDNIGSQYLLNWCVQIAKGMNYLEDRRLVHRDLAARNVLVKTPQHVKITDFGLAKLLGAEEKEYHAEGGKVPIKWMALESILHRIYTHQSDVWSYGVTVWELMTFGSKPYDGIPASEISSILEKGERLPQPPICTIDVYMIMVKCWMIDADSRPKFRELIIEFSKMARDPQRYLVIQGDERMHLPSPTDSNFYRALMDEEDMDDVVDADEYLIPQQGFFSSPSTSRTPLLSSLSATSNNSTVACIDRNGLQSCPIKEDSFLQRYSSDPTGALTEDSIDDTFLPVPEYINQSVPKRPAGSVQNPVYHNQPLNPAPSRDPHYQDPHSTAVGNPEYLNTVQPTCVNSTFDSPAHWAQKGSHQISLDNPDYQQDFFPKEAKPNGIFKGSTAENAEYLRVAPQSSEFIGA

SMILES | IC50
COc1cccc(/C=N/c2c(C#N)nc3c(-c4cc(OC)c(OC)c(OC)c4)nc4ccccc4n23)c1 | 0.0759 µM

test system: A549; test: Downregulation of KRAS gene expression in human A549 cells by SYBR green dye based qPCR analysis; type: functional, cell-based; details: not given

SMILES | Activity
COc1cccc(/C=N/c2c(C#N)nc3c(-c4cc(OC)c(OC)c(OC)c4)nc4ccccc4n23)c1 | Active
COc1cc(-c2nc3ccccc3n3c(/N=C/c4ccsc4)c(C#N)nc23)cc(OC)c1OC | Active
C#Cc1cccc(Nc2ncnc3cc(OCCOC)c(OCCOC)cc23)c1 | Active

test system: A549; test: Downregulation of MAP2K gene expression in human A549 cells by SYBR green dye based qPCR analysis; type: functional, cell-based; details: not given

SMILES | Activity
COc1cccc(/C=N/c2c(C#N)nc3c(-c4cc(OC)c(OC)c(OC)c4)nc4ccccc4n23)c1 | Active
COc1cc(-c2nc3ccccc3n3c(/N=C/c4ccsc4)c(C#N)nc23)cc(OC)c1OC | Active
C#Cc1cccc(Nc2ncnc3cc(OCCOC)c(OCCOC)cc23)c1 | Active

test system: A549; test: Downregulation of EGFR gene expression in human A549 cells by SYBR green dye based qPCR analysis; type: functional, cell-based; details: not given

SMILES | Activity
COc1cccc(/C=N/c2c(C#N)nc3c(-c4cc(OC)c(OC)c(OC)c4)nc4ccccc4n23)c1 | Active
COc1cc(-c2nc3ccccc3n3c(/N=C/c4ccsc4)c(C#N)nc23)cc(OC)c1OC | Active
C#Cc1cccc(Nc2ncnc3cc(OCCOC)c(OCCOC)cc23)c1 | Active

test system: A549; test: Inhibition of oxidative stress in human A549 cells assessed as reduction in ROS production at 1 to 5 uM by DCFH-DA staining based microplate reader analysis; type: functional, cell-based; details: dose 1-5 µM

SMILES | inhibition
COc1cccc(/C=N/c2c(C#N)nc3c(-c4cc(OC)c(OC)c(OC)c4)nc4ccccc4n23)c1 | Active
COc1cc(-c2nc3ccccc3n3c(/N=C/c4ccsc4)c(C#N)nc23)cc(OC)c1OC | Active

test system: A549; test: Induction of mitochondrial membrane hyperpolarization in human A549 cells at 1 to 5 uM by JC-1 staining based fluorescence microplate reader assay; type: functional, cell-based; details: dose 1-5 µM

SMILES | Activity
COc1cccc(/C=N/c2c(C#N)nc3c(-c4cc(OC)c(OC)c(OC)c4)nc4ccccc4n23)c1 | Active
COc1cc(-c2nc3ccccc3n3c(/N=C/c4ccsc4)c(C#N)nc23)cc(OC)c1OC | Active

target: T1, Epidermal growth factor receptor; test: not given; details: dose 200.0 nM, time 2.0 hrs

SMILES | inhibition
COc1cccc(/C=N/c2c(C#N)nc3c(-c4cc(OC)c(OC)c(OC)c4)nc4ccccc4n23)c1 | > 50%

test system: A549; test: cells; details: Homo sapiens, A549, 48 h

SMILES | IC50
COc1cc(-c2nc3ccccc3n3c(/N=C/c4cc(F)ccc4[N+](=O)[O-])c(C#N)nc23)cc(OC)c1OC | 3.25 µM
COc1cc(-c2nc3ccccc3n3c(/N=C/c4ccc(Cl)cc4)c(C#N)nc23)cc(OC)c1OC | 4.43 µM
COc1cc(-c2nc3ccccc3n3c(/N=C/c4ccncc4)c(C#N)nc23)cc(OC)c1OC | 16.5 µM

The next lines start with the values.

IC50 | SMILES
13.2 µM | COc1cc(-c2nc3ccccc3n3c(/N=C/c4ccc(N(C)C)cc4)c(C#N)nc23)cc(OC)c1OC
3.53 µM | COc1cccc(/C=N/c2c(C#N)nc3c(-c4cc(OC)c(OC)c(OC)c4)nc4ccccc4n23)c1
1.34 µM | COc1cc(-c2nc3ccccc3n3c(/N=C/c4ccsc4)c(C#N)nc23)cc(OC)c1OC
4.27 µM | COc1cc(-c2nc3ccccc3n3c(/N=C/c4cccnc4)c(C#N)nc23)cc(OC)c1OC
> 25 µM | COc1cc(-c2nc3ccccc3n3c(/N=C/c4c[nH]c5ccccc45)c(C#N)nc23)cc(OC)c1OC

test system: MCF7; test: cells; details: Homo sapiens, MCF7, 48 h

SMILES | IC50
COc1cc(-c2nc3ccccc3n3c(/N=C/c4cc(F)ccc4[N+](=O)[O-])c(C#N)nc23)cc(OC)c1OC | 9.99 µM
COc1cc(-c2nc3ccccc3n3c(/N=C/c4ccc(Cl)cc4)c(C#N)nc23)cc(OC)c1OC | 3.82 µM
COc1cc(-c2nc3ccccc3n3c(/N=C/c4ccncc4)c(C#N)nc23)cc(OC)c1OC | 13.1 µM

Results, then the compound that gave them:

IC50 | SMILES
24 µM | COc1cc(-c2nc3ccccc3n3c(/N=C/c4ccc(N(C)C)cc4)c(C#N)nc23)cc(OC)c1OC
13.6 µM | COc1cccc(/C=N/c2c(C#N)nc3c(-c4cc(OC)c(OC)c(OC)c4)nc4ccccc4n23)c1
14.3 µM | COc1cc(-c2nc3ccccc3n3c(/N=C/c4ccsc4)c(C#N)nc23)cc(OC)c1OC
23.9 µM | COc1cc(-c2nc3ccccc3n3c(/N=C/c4cccnc4)c(C#N)nc23)cc(OC)c1OC
8.99 µM | COc1cc(-c2nc3ccccc3n3c(/N=C/c4c[nH]c5ccccc45)c(C#N)nc23)cc(OC)c1OC

test system: MDA-MB-231; test: cells; details: Homo sapiens, MDA-MB-231, 48 h

SMILES | IC50
COc1cc(-c2nc3ccccc3n3c(/N=C/c4cc(F)ccc4[N+](=O)[O-])c(C#N)nc23)cc(OC)c1OC | 11.4 µM
COc1cc(-c2nc3ccccc3n3c(/N=C/c4ccc(Cl)cc4)c(C#N)nc23)cc(OC)c1OC | 5.94 µM
COc1cc(-c2nc3ccccc3n3c(/N=C/c4ccncc4)c(C#N)nc23)cc(OC)c1OC | 8.88 µM

The remaining lines, values ahead:

IC50 | SMILES
6.41 µM | COc1cc(-c2nc3ccccc3n3c(/N=C/c4ccc(N(C)C)cc4)c(C#N)nc23)cc(OC)c1OC
5.77 µM | COc1cccc(/C=N/c2c(C#N)nc3c(-c4cc(OC)c(OC)c(OC)c4)nc4ccccc4n23)c1
> 25 µM | COc1cc(-c2nc3ccccc3n3c(/N=C/c4ccsc4)c(C#N)nc23)cc(OC)c1OC
8.66 µM | COc1cc(-c2nc3ccccc3n3c(/N=C/c4cccnc4)c(C#N)nc23)cc(OC)c1OC
> 25 µM | COc1cc(-c2nc3ccccc3n3c(/N=C/c4c[nH]c5ccccc45)c(C#N)nc23)cc(OC)c1OC
